For 68 compounds, IC50 results are on record in patent US12637433B2, “Histone deacetylase inhibitors” (THE UNIVERSITY OF QUEENSLAND, priority 2020, dated 2026).

The target in this experiment is T1, human HDAC7 enzyme (Homo sapiens, UniProt Q8WUI4).
T1 construct: purchased Reaction Biology Corp
Briefly: Human HDAC7 enzyme assay (Class IIa HDACs). The experiment is classed as biochemical. Particulars: Table 8; recombinant human HDAC7.

T1 sequence (Q8WUI4 whole entry): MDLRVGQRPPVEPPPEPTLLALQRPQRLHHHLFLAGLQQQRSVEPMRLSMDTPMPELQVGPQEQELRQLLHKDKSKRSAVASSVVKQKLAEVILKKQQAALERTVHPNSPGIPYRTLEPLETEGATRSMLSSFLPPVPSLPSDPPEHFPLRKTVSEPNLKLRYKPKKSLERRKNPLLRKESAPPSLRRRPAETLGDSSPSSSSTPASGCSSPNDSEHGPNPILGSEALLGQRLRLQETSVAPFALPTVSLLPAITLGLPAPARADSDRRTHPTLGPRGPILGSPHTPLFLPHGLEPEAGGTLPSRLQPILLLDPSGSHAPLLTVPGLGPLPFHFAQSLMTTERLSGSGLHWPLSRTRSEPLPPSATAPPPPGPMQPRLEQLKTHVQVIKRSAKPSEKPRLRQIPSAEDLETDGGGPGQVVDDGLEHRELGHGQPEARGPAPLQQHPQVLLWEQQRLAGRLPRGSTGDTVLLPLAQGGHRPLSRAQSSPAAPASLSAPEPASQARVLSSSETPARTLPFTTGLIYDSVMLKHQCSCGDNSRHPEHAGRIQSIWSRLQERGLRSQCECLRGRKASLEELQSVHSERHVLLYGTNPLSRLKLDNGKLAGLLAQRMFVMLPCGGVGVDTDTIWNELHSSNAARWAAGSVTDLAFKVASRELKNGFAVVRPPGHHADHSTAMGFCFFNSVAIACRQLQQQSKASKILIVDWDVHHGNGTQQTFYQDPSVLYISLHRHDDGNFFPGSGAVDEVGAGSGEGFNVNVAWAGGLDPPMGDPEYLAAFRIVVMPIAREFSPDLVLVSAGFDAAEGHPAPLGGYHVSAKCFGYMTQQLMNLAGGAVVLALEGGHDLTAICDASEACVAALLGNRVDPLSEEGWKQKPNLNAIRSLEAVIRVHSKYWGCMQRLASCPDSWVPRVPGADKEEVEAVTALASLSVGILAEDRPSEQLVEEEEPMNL

In the case of `Nc1ccc(C(=O)NO)c(-c2ccccc2)c1` [Example 99], the IC50 – broadly, the concentration that inhibits the measured activity by half – turned out to be 945 nM.

For `O=C(O)c1ccc(Nc2ccc(C(=O)NO)c(-c3ccccc3)c2)cc1` [Example 74], the IC50 came to 68 ± 15 nM.

`Cc1ccc(C(=O)Nc2ccc(C(=O)NO)c(-c3ccccc3)c2)cc1` [Example 62]: the IC50 turned out to be 431 nM.

Take `O=C(NO)c1ccc(Nc2ncccn2)cc1-c1ccccc1` [Example 83]: the IC50 is 447 ± 177 nM.

Take `CC1C(=O)Nc2ccccc2C(=O)N1Cc1ccc(C(=O)NO)c(-c2ccccc2)c1` (centres unmarked) [Example 97]: the IC50 is 74 ± 13 nM.

Turning to `O=C(O)c1ccc(CNCc2ccc(C(=O)NO)c(-c3ccccc3)c2)cc1-c1ccccc1` [Example 33, N-(4-hydroxyaminocarbonyl-3-phenylbenzyl)-N-(4-hydroxycarbonyl-3-phenylbenzyl)amine], the IC50 was 658 ± 208 nM.

With `O=C(NCc1ccc(C(=O)NO)c(-c2ccc(F)cc2)c1)Nc1cccc2cccnc12` [Example 6], the IC50 worked out at 118 ± 21 nM.

With `COc1ccc(-c2cc(CNC(=O)Nc3cccc4cccnc34)ccc2C(=O)NO)cc1` [Example 102], the IC50 is above 10000 nM.

As for `CC(=O)Nc1ccc(C(=O)NCc2ccc(C(=O)NO)c(-c3ccccc3)c2)cc1` [Example 20], the IC50 worked out at 101 ± 26 nM.

Consider `O=C(NCc1ccc(C(=O)NO)c(-c2ccccc2)c1)Nc1ccccc1` [Example 28], for which the concentration for half-maximal inhibition (IC50) turned out to be 104 ± 21 nM.

For the compound `O=C(NO)c1ccc(NC(=O)C2(C(=O)Nc3ccccc3)CCCCC2)cc1-c1ccccc1` [Example 90], the IC50 is 168 nM.

Regarding `Cc1nc2ccccc2c(=O)n1Cc1ccc(C(=O)N(C)O)c(-c2ccccc2)c1` [Example 100], the IC50 was at least 10000 nM.

With `O=C(NO)c1ccc(CNCc2ccc[nH]2)cc1-c1ccccc1` [Example 95], the 50% inhibitory concentration (IC50) came out at 914 ± 204 nM.

Regarding `O=C(NO)c1ccc(Nc2ccc(-c3ccccc3)cc2)cc1-c1ccccc1` [Example 72], the IC50 is above 10000 nM.

On to `O=C(NO)c1ccc(NC(=O)C2(C(=O)Nc3ccccc3)CCCC2)cc1-c1ccccc1` [Example 89], for which the IC50 was determined as 243 nM.

As for `C[C@H](N)C(=O)NCc1ccc(C(=O)NO)c(-c2ccccc2)c1` [Example 92], the IC50 amounted to 3130 ± 1730 nM.

On to `Nc1ccc(-c2cc(CNC(=O)Nc3cccc4cccnc34)ccc2C(=O)NO)cc1` [Example 105], for which the half-inhibitory concentration (IC50) was above 10000 nM.

On to `O=C(NO)c1ccc(Nc2ccc3ccccc3c2)cc1-c1ccccc1` [Example 73], for which the IC50 is 321 nM.

On to `O=C(NO)c1c(F)cc(CN2C(=O)c3ccccc3S2(=O)=O)cc1-c1ccccc1` [Example 57b], for which the IC50 came to 582 ± 104 nM.

On to `O=C(NO)c1ccc(Nc2ccc(C(F)(F)F)cc2)cc1-c1ccccc1` [Example 69], for which the IC50 amounted to 578 nM.

With `O=C(NCc1ccc(C(=O)NO)c(-c2ccccc2)c1)c1ccccc1NC(=O)C(F)(F)F` [Example 22], the IC50 is 925 ± 865 nM.

In the case of `O=C(NCc1ccc(C(=O)NO)c(-c2ccccc2)c1)c1ccccn1` [Example 16], the IC50 was found to be 108 ± 34 nM.

For `O=C(NO)c1ccc(Nc2ccc(Cl)cc2)cc1-c1ccccc1` [Example 68], the half-maximal inhibitory concentration (IC50) came out at 178 nM.

For `O=C(NO)c1ccc(NC(=O)C2(c3c[nH]c(-c4ccc([N+](=O)[O-])cc4)n3)CCCC2)cc1-c1ccccc1` [Example 85], the IC50 turned out to be 625 ± 318 nM.

Turning to `O=C(NO)c1ccc(Nc2ccccc2)cc1-c1ccccc1` [Example 66], the IC50 came to 94 nM.

Turning to `O=C(Nc1ccc(C(=O)NO)c(-c2ccccc2)c1)c1ccccc1` [Example 60], the IC50 came out at 325 nM.

For `O=C(NO)c1ccc(Nc2ccccn2)cc1-c1ccccc1` [Example 82], the IC50 was found to be 249 nM.

Consider `O=C(NO)c1ccc(CNCc2ccccc2)cc1-c1ccccc1` [Example 30, 5-((benzylamino)methyl)-N-hydroxy-[1,1′-biphenyl]-2-carboxamide], for which the IC50 was determined as 1470 ± 426 nM.

For the compound `CC(C)(C)OC(=O)c1ccc(Nc2ccc(C(=O)NO)c(-c3ccccc3)c2)cc1` [Example 75], the half-inhibitory concentration (IC50) was determined as 54 ± 7 nM.

On to `O=C(NCc1ccc(C(=O)NO)c(-c2ccccc2F)c1)Nc1cccc2cccnc12` [Example 4], for which the IC50 turned out to be 152 ± 40 nM.

In the case of `O=C(NO)c1ccc(Oc2ccc(F)cc2)cc1-c1ccccc1` [Example 80], the IC50 was found to be 175 ± 26 nM.

Take `O=C(NCc1ccc(C(=O)NO)c(-c2cccc(F)c2)c1)Nc1cccc2cccnc12` [Example 5]: the IC50 was found to be 64 ± 12 nM.

For `O=C(NO)c1ccc(CNCc2ccc(C(=O)NO)c(-c3ccccc3)c2)cc1-c1ccccc1` [Example 31, bis(4-hydroxyaminocarbonyl-3-phenylbenzyl)amine], the half-maximal inhibitory concentration (IC50) is 125 ± 22 nM.

As for `O=C(NCc1ccc(C(=O)NO)c(-c2cccc(Cl)c2)c1)Nc1cccc2cccnc12` [Example 8], the IC50 stood at 886 ± 192 nM.

As for `O=C(NO)c1ccc(Nc2cnccn2)cc1-c1ccccc1` [Example 84], the IC50 was determined as 233 ± 95 nM.

As for `O=C(NCc1ccc(C(=O)NO)c(-c2ccccc2)c1)c1cnc[nH]1` [Example 94], the IC50 is 165 ± 45 nM.

For the compound `O=C(NCc1ccc(C(=O)NO)c(-c2ccccc2)c1)c1ccccc1` [Example 15], the IC50 came to 123 ± 39 nM.

On to `CN(c1ccc(F)cc1)c1ccc(C(=O)NO)c(-c2ccccc2)c1` [Example 81], for which the concentration for half-maximal inhibition (IC50) worked out at 64 ± 10 nM.

With `Cc1ccc(Nc2ccc(C(=O)NO)c(-c3ccccc3)c2)cc1` [Example 76], the IC50 was determined as 81 ± 19 nM.

`Cc1cccc(-c2cc(CNC(=O)Nc3cccc4cccnc34)ccc2C(=O)NO)c1` [Example 10]: the IC50 was above 10000 nM.

For the compound `Cc1ccccc1-c1cc(CNC(=O)Nc2cccc3cccnc23)ccc1C(=O)NO` [Example 9], the IC50 came out at 125 ± 26 nM.

Consider `O=C(Nc1ccccc1)Nc1ccc(C(=O)NO)c(-c2ccccc2)c1` [Example 86], for which the IC50 amounted to 248 nM.

On to `NC(=O)c1ccc(C(=O)NCc2ccc(C(=O)NO)c(-c3ccccc3)c2)cc1` [Example 21], for which the half-inhibitory concentration (IC50) stood at 116 ± 27 nM.

Regarding `O=C(NO)c1ccc(NC(=O)C2(c3ccc4ccccc4c3)CCOCC2)cc1-c1ccccc1` [Example 93], the IC50 came to 1590 nM.

Regarding `O=C(NO)c1ccc(Nc2cc(F)c(F)c(F)c2)cc1-c1ccccc1` [Example 70], the IC50 was determined as 649 nM.

In the case of `O=C(NO)c1ccc(NC(=O)C2(C(=O)Nc3ccccc3)CCC2)cc1-c1ccccc1` [Example 88], the IC50 was 75 ± 23 nM.

`COc1cccc(-c2cc(CNC(=O)Nc3cccc4cccnc34)ccc2C(=O)NO)c1` [Example 103]: the IC50 is above 10000 nM.

Regarding `O=C(NO)c1ccc(CNC(=O)C2CCCN2)cc1-c1ccccc1` (centres unmarked) [Example 27], the IC50 turned out to be 960 ± 225 nM.

Turning to `CC1C(=O)NC(Cc2ccccc2)C(=O)N1Cc1ccc(C(=O)NO)c(-c2ccccc2)c1` (mixture of isomers) [Example 96], the IC50 came out at 322 ± 109 nM.

On to `CCCCCCNC(=O)NCc1ccc(C(=O)NO)c(-c2ccccc2)c1` [Example 29], for which the IC50 was found to be 196 ± 66 nM.

Take `Cc1nc2ccccc2c(=O)n1Cc1ccc(C(=O)NO)c(C2CC2)c1` [Example 106]: the IC50 was found to be 8660 nM.

For `O=C(NO)c1ccc(NC(=O)C2(C(=O)Nc3ccccc3)CC2)cc1-c1ccccc1` [Example 87], the IC50 was 241 nM.

For the compound `O=C(NCc1ccc(C(=O)NO)c(-c2ccccc2Cl)c1)Nc1cccc2cccnc12` [Example 7], the IC50 came out at 178 ± 47 nM.

For `O=C(NO)c1ccc(Nc2ccc(F)cc2)cc1-c1ccccc1` [Example 67], the IC50 was found to be 88 nM.

As to `O=C(NCc1ccc(C(=O)NO)c(-c2ccccc2)c1)c1ccncc1` [Example 18], the IC50 amounted to 205 ± 47 nM.

For `Cc1ccc(-c2cc(CNC(=O)Nc3cccc4cccnc34)ccc2C(=O)NO)cc1` [Example 11], the IC50 is 1890 ± 431 nM.

For the compound `O=C(NCc1ccc(C(=O)NO)c(-c2cn[nH]c2)c1)Nc1cccc2cccnc12` [Example 104], the IC50 was above 10000 nM.

Take `CC1C(=O)N(C2CCCCC2)C(=O)N1Cc1ccc(C(=O)NO)c(-c2ccccc2)c1` (centres unmarked) [Example 98]: the IC50 worked out at 100 ± 18 nM.

Consider `O=C(NCc1ccc(C(=O)NO)c(-c2ccccc2)c1)c1cccnc1` [Example 17], for which the 50% inhibitory concentration (IC50) was found to be 151 ± 52 nM.

Regarding `O=C(NO)c1ccc(Nc2cc(F)cc(F)c2)cc1-c1ccccc1` [Example 71], the IC50 was found to be 206 nM.

`CC(=O)Nc1cccc(C(=O)NCc2ccc(C(=O)NO)c(-c3ccccc3)c2)c1` [Example 19]: the IC50 was 78 ± 21 nM.

In the case of `COc1ccc(Nc2ccc(C(=O)NO)c(-c3ccccc3)c2)cc1` [Example 77], the IC50 turned out to be 61 ± 9 nM.

For `O=C(NO)c1ccc(C(n2cc(-c3ccccc3)nn2)n2cc(-c3ccccc3)nn2)cc1-c1ccccc1` [Example 58], the IC50 is 5 ± 1 nM.

Take `COc1ccc(C(=O)Nc2ccc(C(=O)NO)c(-c3ccccc3)c2)cc1` [Example 63]: the IC50 worked out at 323 nM.

Consider `O=C(Cc1c[nH]c2ccccc12)NCc1ccc(C(=O)NO)c(-c2ccccc2)c1` [Example 25], for which the IC50 is 238 ± 86 nM.

Turning to `O=C(Nc1ccc(C(=O)NO)c(-c2ccccc2)c1)c1ccc(F)cc1` [Example 61], the IC50 was 645 nM.

For the compound `CONC(=O)c1ccc(Cn2c(C)nc3ccccc3c2=O)cc1-c1ccccc1` [Example 101], the IC50 is at least 10000 nM.

As for `COC(=O)c1ccc(CNCc2ccc(C(=O)NO)c(-c3ccccc3)c2)cc1-c1ccccc1` [Example 32, N-(4-hydroxyaminocarbonyl-3-phenylbenzyl)-N-(4-methoxycarbonyl-3-phenylbenzyl)amine], the IC50 was determined as 137 ± 30 nM.
